According to patent US20260130933A1, “PHARMACEUTICAL COMPOSITION FOR PREVENTION OR TREATMENT OF NEPHROPATHY AND/OR DIABETES MELLITUS, COMPRISING ENAVOGLIFLOZIN” (DAEWOONG PHARMACEUTICAL CO., LTD., priority 2022, published 2026):

Assay: Example 3: phase 3 trial, enavogliflozin 0.3 mg vs dapagliflozin 10 mg once a day for 24 weeks added to metformin and gemigliptin in patients with type 2 diabetes (same endpoints, rescue drug)
Format: in vivo, human
Description: 1) when Metformin (≥1,000 mg/Day) was Administered at a Constant Dose for at Least 8 Weeks Prior to Pre-Visit (Pre-Screening) • Metformin (≥1,000 mg/day) and gemigliptin (50 mg/day) were co-administered during the 8-week stabilization period. […] 4) when Metformin (≥1,000 mg/Day) and Gemigliptin (50 mg/Day) were Co-Administered at Constant Doses for at Least 8 Weeks Prior to Pre-Visit (Prescreening) • Without a separate stabilization period, Pre-visit (pre-screening) was Visit 1 (screening).
Subjects who met the inclusion/exclusion criteria continued to receive metformin and gemigliptin while receiving a placebo of the clinical trial drug in a single-blind (subject-blinded) state for a 2-week run-in period.
Here, the randomized subjects were stratified according to the administration therapy (co-administration with two or less agents (one or two agents) or three or more agents) of a conventional hypoglycemic agent (before washout of another hypoglycemic agent) within 24 weeks prior to obtaining written informed consent and by an HbA1c value (<8% or ≥8%) at Visit 1 (screening) measured in the central laboratory.
The randomized subjects were administered two tablets of the clinical trial drug corresponding to each administration group once a day, and then visited the institution at weeks 6, 12, 18, and 24 during the 24-week administration period to conduct efficacy and safety assessments. In addition, during the clinical trial period, they were instructed to exercise regularly and control their diet without changing their daily life patterns.
• 1) Change in HbA1c at week 24 after administration of clinical trial drug compared to Visit 2 (randomization)
• 1) Change in HbA1c at each time point of weeks 6, 12, and 18 after administration of clinical trial drug compared to Visit 2 (randomization) • 2) Change in FPG at each time point of weeks 6, 12, 18, and 24 after administration of clinical trial drug compared to Visit 2 (randomization) • 3) Proportion of subjects achieving HbA1c<7% at each time point of weeks 6, 12, 18, and 24 after administration of clinical trial drug • 4) Proportion of subjects achieving HbA1c<6.5% at each time point of weeks 6, 12, 18, and 24 after administration of clinical trial drug • 5) Proportion of subjects achieving therapeutic response (HbA1c change (HbA1c at Visit 2—HbA1c at each evaluation time point)>0.5% or HbA1c<7% at each evaluation time point compared to Visit 2 (randomization)) at each time point of weeks 6, 12, 18, and 24 after administration of clinical trial drug • 6) Proportion of subjects achieving therapeutic response (HbA1c change (HbA1c at Visit 2—HbA1c at each evaluation time point)>0.7% or HbA1c<7% at each evaluation time point compared to Visit 2 (randomization)) at each time point of weeks 6, 12, 18, and 24 after administration of clinical trial drug • 7) Proportion of subjects achieving therapeutic response (HbA1c change (HbA1c at Visit 2—HbA1c at each evaluation time point)>1% or HbA1c<7% at each evaluation time point compared to Visit 2 (randomization)) at each time point of weeks 6, 12, 18, and 24 after administration of clinical trial drug

[1] = week 6, per-protocol set, enavogliflozin 0.3 mg, dapagliflozin 10 mg
[2] = week 12, modified per-protocol set 1, enavogliflozin 0.3 mg, dapagliflozin 10 mg
[3] = week 12, modified per-protocol set 2
[4] = week 12, modified per-protocol set 2, enavogliflozin 0.3 mg, dapagliflozin 10 mg
[5] = week 12, per-protocol set, enavogliflozin 0.3 mg, dapagliflozin 10 mg

CCOc1ccc(Cc2cc([C@@H]3O[C@H](CO)[C@@H](O)[C@H](O)[C@H]3O)ccc2Cl)cc1 [Dapagliflozin, reference compound]
HbA1c, Median [1]: 6.96% | Subjects achieving HbA1c target of <6.5%, (%) [1]: 15.57% | Subjects achieving HbA1c target of <7%, % [1]: 51.64% | body weight, Median [1]: 63.90 kg | Subjects achieving therapeutic glycemic response 1, % (week 6, per-protocol set, response 1 = HbA1c change >0.5% or HbA1c <7%, enavogliflozin 0.3 mg, dapagliflozin 10 mg): 81.97% | Subjects achieving therapeutic glycemic response 2, % (week 6, per-protocol set, response 2 = HbA1c change >0.7% or HbA1c <7%, enavogliflozin 0.3 mg, dapagliflozin 10 mg): 76.23% | Subjects achieving therapeutic glycemic response 3, % (week 6, per-protocol set, response 3 = HbA1c change >1% or HbA1c <7%, enavogliflozin 0.3 mg, dapagliflozin 10 mg): 63.93% | FPG change from baseline, LS mean (SE) (week 12): −24.42(1.50) mg/dL | HDL-C change from baseline, LS mean (SE) (week 12): 2.84(0.60) mg/dL | HOMA-β change from baseline, LS mean (SE) (week 12): 5.23(1.90) | HbA1c change from baseline, LS mean (SE) (week 12): −0.83(0.04) % p | LDL-C change from baseline, LS mean (SE) (week 12): 2.71(1.75) mg/dL | UACR change from baseline, LS mean (SE) (week 12): −11.76(4.47) g/kg | UGCR change from baseline, LS mean (SE) (week 12): 44.84(2.02) mg/mg | adiponectin change from baseline, LS mean (SE) (week 12): 0.70(0.33) μg/mL | body weight change from baseline, LS mean (SE) (week 12): −2.71(0.19) kg | diastolic blood pressure change from baseline, LS mean (SE) (week 12): −2.26(0.66) mmHg | fasting C-peptide change from baseline, LS mean (SE) (week 12): −0.07(0.02) ng/ml | leptin change from baseline, LS mean (SE) (week 12): −1.69(0.47) ng/ml | systolic blood pressure change from baseline, LS mean (SE) (week 12): −5.06(0.85) mmHg | total cholesterol change from baseline, LS mean (SE) (week 12): 5.40(1.98) mg/dL | triglyceride change from baseline, LS mean (SE) (week 12): −12.02(5.12) mg/dL | Change from baseline in HDL-C, ANCOVA LS mean [2]: 2.84 mg/dL | Change from baseline in HDL-C, Mean [2]: 2.65 mg/dL | Change from baseline in HDL-C, Median [2]: 2.00 mg/dL | Change from baseline in LDL-C, ANCOVA LS mean [2]: 2.71 mg/dL | Change from baseline in LDL-C, Mean [2]: 2.45 mg/dL | Change from baseline in LDL-C, Median [2]: 4.00 mg/dL | Change from baseline in total cholesterol, ANCOVA LS mean [2]: 5.40 mg/dL | Change from baseline in total cholesterol, Mean [2]: 4.61 mg/dL | Change from baseline in total cholesterol, Median [2]: 6.00 mg/dL | Change from baseline in triglycerides, ANCOVA LS mean [2]: 12.02 mg/dL | Change from baseline in triglycerides, Mean [2]: -16.03 mg/dL | Change from baseline in triglycerides, Median [2]: -6.00 mg/dL | Fasting HDL-C, Mean [2]: 50.08 mg/dL | Fasting HDL-C, Median [2]: 49.00 mg/dL | Fasting LDL-C, Mean [2]: 79.86 mg/dL | Fasting LDL-C, Median [2]: 72.50 mg/dL | Fasting total cholesterol, Mean [2]: 148.41 mg/dL | Fasting triglycerides, Mean [2]: 116.46 mg/dL | Fasting triglycerides, Median [2]: 104.50 mg/dL | fasting Total cholesterol, Median [2]: 140.50 mg/dL | Change from baseline in diastolic blood pressure, ANCOVA LS mean [3]: −2.26 mmHg | Change from baseline in diastolic blood pressure, Mean [3]: −1.88 mmHg | Change from baseline in diastolic blood pressure, Median [3]: −1.00 mmHg | Diastolic blood pressure, Mean [3]: 71.99 mmHg | Diastolic blood pressure, Median [3]: 72.00 mmHg | Change from baseline in systolic blood pressure, ANCOVA LS mean [4]: −5.06 mmHg | Change from baseline in systolic blood pressure, Mean [4]: −4.43 mmHg | Change from baseline in systolic blood pressure, Median [4]: −4.00 mmHg | Systolic blood pressure, Mean [4]: 119.51 mmHg | Systolic blood pressure, Median [4]: 120.00 mmHg | Adiponectin, Mean (week 12, per-protocol set): 6.97 µg/mL | Adiponectin, Median (week 12, per-protocol set): 6.27 µg/mL | Change from baseline in HOMA-IR, ANCOVA LS mean (week 12, per-protocol set): −1.05 | Change from baseline in HOMA-IR, Mean (week 12, per-protocol set): −1.06 | Change from baseline in HOMA-IR, Median (week 12, per-protocol set): −0.76 | Change from baseline in HOMA-β, ANCOVA LS mean (week 12, per-protocol set): 5.23 | Change from baseline in HOMA-β, Mean (week 12, per-protocol set): 4.70 | Change from baseline in HOMA-β, Median (week 12, per-protocol set): 3.50 | Change from baseline in UACR, ANCOVA LS mean (week 12, per-protocol set): -11.76 g/kg | Change from baseline in UACR, Mean (week 12, per-protocol set): -7.42 g/kg | Change from baseline in UACR, Median (week 12, per-protocol set): 0.20 g/kg | Change from baseline in UGCR, ANCOVA LS mean (week 12, per-protocol set): 44.84 mg/mg | Change from baseline in UGCR, Mean (week 12, per-protocol set): 43.19 mg/mg | Change from baseline in UGCR, Median (week 12, per-protocol set): 41.69 mg/mg | Change from baseline in adiponectin, ANCOVA LS mean (week 12, per-protocol set): 0.70 µg/mL | Change from baseline in adiponectin, Mean (week 12, per-protocol set): 0.63 µg/mL | Change from baseline in adiponectin, Median (week 12, per-protocol set): 0.43 µg/mL | Change from baseline in leptin, ANCOVA LS mean (week 12, per-protocol set): -1.69 ng/mL | Change from baseline in leptin, Mean (week 12, per-protocol set): -1.82 ng/mL | Change from baseline in leptin, Median (week 12, per-protocol set): -0.96 ng/mL | HOMA-IR (insulin resistance), Mean (week 12, per-protocol set): 1.80 | HOMA-IR (insulin resistance), Median (week 12, per-protocol set): 1.55 | HOMA-β (beta-cell function), Mean (week 12, per-protocol set): 45.17 | HOMA-β (beta-cell function), Median (week 12, per-protocol set): 38.20 | Leptin, Mean (week 12, per-protocol set): 9.03 ng/mL | Leptin, Median (week 12, per-protocol set): 7.69 ng/mL | UACR, Mean (week 12, per-protocol set): 27.28 g/kg | UACR, Median (week 12, per-protocol set): 11.80 g/kg | UGCR, Mean (week 12, per-protocol set): 44.72 mg/mg | UGCR, Median (week 12, per-protocol set): 41.80 mg/mg | Body weight, Mean [5]: 64.64 kg | Change from baseline in FPG, ANCOVA LS mean [5]: -24.42 mg/dL | Change from baseline in FPG, Mean [5]: -25.28 mg/dL | Change from baseline in FPG, Median [5]: -20.00 mg/dL | Change from baseline in HbA1c, ANCOVA LS mean [5]: −0.83 % p | Change from baseline in HbA1c, Mean [5]: −0.87 % p | Change from baseline in HbA1c, Median [5]: −0.85 % p | Change from baseline in body weight, ANCOVA LS mean [5]: -2.71 kg | Change from baseline in body weight, Mean [5]: -2.58 kg | Change from baseline in body weight, Median [5]: -2.50 kg | Change from baseline in fasting C-peptide, ANCOVA LS mean [5]: -0.07 ng/mL | Change from baseline in fasting C-peptide, Mean [5]: -0.06 ng/mL | Change from baseline in fasting C-peptide, Median [5]: -0.03 ng/mL | FPG, Mean [5]: 115.24 mg/dL | FPG, Median [5]: 112.00 mg/dL | Fasting C-peptide, Mean [5]: 0.63 ng/mL | Fasting C-peptide, Median [5]: 0.60 ng/mL | HbA1c, Mean [5]: 6.96% | HbA1c, Median [5]: 6.84% | Subjects achieving HbA1c target of <6.5%, (%) [5]: 17.07%
